We go through two molecules from patent publication US20220112515A1, “Method for Producing Virus-Infected Cell Line and Animal Model” (INDUSTRY-ACADEMIC COOPERATION FOUNDATION, YONSEI UNIVERSITY, priority 2018, published 2022).

Test [1] concerns H4-II-E cell line. Conditions: HCV mixed with tCA. An excerpt: (§1) For production of enveloped virus-infected cell line models, HBV (1×10^6 copies/ml/well of HBV) isolated in Example 1 above was mixed with 100 μmol/L of taurochenodeoxycholic acid (hereinafter referred to as ‘tCDCA’), and HCV (1×10^6 IU/ml/well of HCV) isolated in Example 1 above was mixed with tCDCA or taurocholic acid (hereinafter referred to as ‘tCA’). Here, tCA was mixed with HCV and used to infect mouse hepatocytes; and tCDCA was used in all other cases.
(§2) A cell line (HepG2, Huh-7, A549, A-498, MDA-MB-231, Jurkat, HeLa, Hepa1c1c7, EL4, H4-II-E, LA-4, LC540, or RAG cell line) at 5×10^6 cells/ml was dispensed into each well of a 6-well plate, and culture was performed for 24 hours. Then, the tCDCA or tCA solution mixed with HBV or HCV was added thereto, and culture was further performed for 24 hours. Here, as a control, a group, to which only HBV or HCV was added without the tCDCA or tCA solution, was used. […] Finally, the cell culture medium was treated with 100 μmol/L of tCDCA or tCA, and culture was further performed for 3 days, thereby producing a virus-infected cell line model (hereinafter referred to as “infected cell line”).
(§3) The levels of HCV core and HCV RNA present were measured in each of the HCV-infected cell lines produced and the culture medium collected therefrom. […]

For test [2], the system named is Hepa1c1c7 cell line. Conditions: HCV mixed with tCA (mouse hepatocytes).
From the text: as §1, §2, §3

In test [3] the test system is HepG2 cell line. As to the kind of experiment: HBV infection of HepG2 cell line with tCDCA-mixed HBV. Format: cell-based, human. Conditions: HBV mixed with 100 μmol/L tCDCA. As for the experimental part: (§4) In addition, […] was performed using an anti-HBcAg antibody, to measure a level of HBcAg present. Specifically, 100 μl/well of anti-HBcAg antibody (10E11) (cat no. MA1-7608; Thermo Fisher, USA) was added to a micro ELISA plate, and the reaction was allowed to proceed at 4° C. overnight. Then, 200 μl/well of 1× ELISA/ELISPOT Diluent (Invitrogen, USA) was additionally added thereto, and the reaction was allowed to proceed for 1 hour. Each of the HBV-infected cell lines produced was dispensed into each well, in which the reaction had been completed, and the reaction was allowed to proceed for 2 hours. Then, the anti-HBcAg antibody (10E11) diluted in a ratio of 1:30 with 100 μl of 1× ELISA/ELISPOT Diluent was added to the plate, and the reaction was allowed to proceed for 1 hour. Then, the additional reaction with 100 μl of HRP-conjugated anti-rabbit IgG was allowed to proceed for 30 minutes. Here, as a positive control, PLC/PRF5 cell line (human liver-derived cell line that releases HBV surface antigen) was used, and levels of HBsAg and HBcAg present therein were measured.

Test [4] deals with Huh-7 cell line. As to the kind of experiment: HBV infection of Huh-7 cell line with tCDCA-mixed HBV. Conditions: HBV mixed with 100 μmol/L tCDCA. It counts as cell-based, human. As for the experimental part:
as §4

Test [5] relates to A498 cell line. As to the kind of experiment: HBV infection of A498 cell line with tCDCA-mixed HBV. Conditions: HBV mixed with 100 μmol/L tCDCA. Format: cell-based, human. The method, then: as §4
The subject of test [6] is MDA-MB-231 cell line. The test is described as follows: HBV infection of MDA-MB-231 cell line with tCDCA-mixed HBV. Format: cell-based, human. Conditions: HBV mixed with 100 μmol/L tCDCA. The method, then:
as §4

The test system of test [7] is Jurkat cell line. The test is described as follows: HBV infection of Jurkat cell line with tCDCA-mixed HBV. Conditions: HBV mixed with 100 μmol/L tCDCA. Format: cell-based, human. The method, then: as §4
The subject of the next test is HeLa cell line. The test is described as follows: HBV infection of HeLa cell line with tCDCA-mixed HBV. Format: cell-based, human. Conditions: HBV mixed with 100 μmol/L tCDCA. As for the experimental part:
as §4

The subject of test [8] is Hepa1c1c7 cell line. The test is described as follows: HBV infection of Hepa1c1c7 cell line with tCDCA-mixed HBV. Format: cell-based, mouse. Conditions: HBV mixed with 100 μmol/L tCDCA. The method, then:
as §4

Test [9] concerns H4-II-E cell line. The test is described as follows: HBV infection of H4-II-E cell line with tCDCA-mixed HBV. It counts as cell-based, rat. Conditions: HBV mixed with 100 μmol/L tCDCA. As for the experimental part: as §4
A further test deals with RAG cell line. The test is described as follows: HBV infection of RAG cell line with tCDCA-mixed HBV. Format: cell-based, mouse. Conditions: HBV mixed with 100 μmol/L tCDCA. The method, then:
as §4

Test [10] concerns EL4 cell line. The test is described as follows: HBV infection of EL4 cell line with tCDCA-mixed HBV. Format: cell-based, mouse. Conditions: HBV mixed with 100 μmol/L tCDCA. As for the experimental part:
as §4

Test [11] concerns LC540 cell line. The test is described as follows: HBV infection of LC540 cell line with tCDCA-mixed HBV. It counts as cell-based, rat. Conditions: HBV mixed with 100 μmol/L tCDCA. The method, then:
as §4

Test [12] has as its system HepG2 cell line. The test is described as follows: HCV infection of HepG2 cell line with tCDCA-mixed HCV. It counts as cell-based, human.
In test [13] the test system is Huh-7 cell line. As to the kind of experiment: HCV infection of Huh-7 cell line with tCDCA-mixed HCV. Format: cell-based, human.
Procedure: (§5) The levels of HCV core and HCV RNA present were measured in each of the HCV-infected cell lines produced and the culture medium collected therefrom. Specifically, measurement of HCV RNA was performed by requesting a specialized inspection agency (Biogeno Korea Co., Ltd., Korea) that utilizes the Roche's COBAS TaqMan system. Here, as a control, a group treated with only HCV without a bile acid derivative was used.
For another test, the system named is A549 cell line. As to the kind of experiment: HCV infection of A549 cell line with tCDCA-mixed HCV. It counts as cell-based, human.
Test [14] relates to A498 cell line. As to the kind of experiment: HCV infection of A498 cell line with tCDCA-mixed HCV. Format: cell-based, human.
For test [15], the system named is MDA-MB-231 cell line. As to the kind of experiment: HCV infection of MDA-MB-231 cell line with tCDCA-mixed HCV. Format: cell-based, human.
In test [16] the test system is Jurkat cell line. As to the kind of experiment: HCV infection of Jurkat cell line with tCDCA-mixed HCV. Format: cell-based, human.
Procedure: as §5
The subject of test [17] is EL4 cell line. The test is described as follows: HCV infection of EL4 cell line with tCDCA-mixed HCV. Format: cell-based, mouse.
Procedure: as §5
For test [18], the system named is LC540 cell line. As to the kind of experiment: HCV infection of LC540 cell line with tCDCA-mixed HCV. It counts as cell-based, rat.
Procedure: as §5

Turning to `C[C@H](CCC(=O)NCCS(=O)(=O)O)[C@H]1CC[C@H]2[C@@H]3[C@H](O)C[C@@H]4C[C@H](O)CC[C@]4(C)[C@H]3C[C@H](O)[C@]12C` [tCA, taurocholic acid], the entries for the “HCV RNA (IU/ml)” value with H4-II-E cell line [1] and in the test on Hepa1c1c7 cell line [2] were 197.33 IU/ml and 3430 IU/ml, respectively.
As for `C[C@H](CCC(=O)NCCS(=O)(=O)O)[C@H]1CC[C@H]2[C@@H]3[C@H](O)C[C@@H]4C[C@H](O)CC[C@]4(C)[C@H]3CC[C@]12C` [tCDCA, taurochenodeoxycholic acid], the “HBV DNA (copies/ml)” value is given as 3,590,000 ± 1,010,000 copies/ml with HepG2 cell line [3]; 89,000 ± 1,836 copies/ml with Huh-7 cell line [4]; 73,500 ± 23,292 copies/ml in the test with A498 cell line [5]; 116 copies/ml in the test on MDA-MB-231 cell line [6]; 868,000 ± 88,963 copies/ml in the test on Jurkat cell line [7]; 359 copies/ml in the test on HeLa cell line. Moreover, the “HBV DNA (copies/ml)” value in the test with Hepa1c1c7 cell line [8] is reported as 7,036,667 copies/ml; with H4-II-E cell line [9], 73,000 ± 51,929 copies/ml; with RAG cell line, 11,700 (622, 000) copies/ml; in the test with EL4 cell line [10], 673,000 ± 60,053 copies/ml; in the test with LC540 cell line [11], 149,000 ± 29,866 copies/ml. Besides, the “HBsAg (Index)” value in the test with HepG2 cell line [3] turned out to be 474.70 ± 176.30 Index; in the test on Huh-7 cell line [4], 26.02 ± 5.97 Index; with A498 cell line [5], 5.12 ± 0.19 Index; in the test on MDA-MB-231 cell line [6], 169 Index; in the test on Jurkat cell line [7] it was 1081 ± 329 Index; in the test on HeLa cell line it was 61.35 Index. For the same molecule, the “HBsAg (Index)” value in the test with Hepa1c1c7 cell line [8] is listed as 508.26 ± 107.6 Index; with H4-II-E cell line [9] it was 22.73 ± 4.39 Index; with RAG cell line it was 21 (744) Index; in the test on EL4 cell line [10], 192.7 ± 30.60 Index; in the test with LC540 cell line [11], 3.06 ± 0.44 Index. Also, the “HBcAg (Index)” value is 61.6% in the test on HepG2 cell line [3] (FACS); 69.8% in the test on Huh-7 cell line [4] (FACS); 67.1% in the test on A498 cell line [5] (FACS); 87.4% with MDA-MB-231 cell line [6] (FACS); 37.5% in the test with Jurkat cell line [7] (FACS); 89.6% in the test on HeLa cell line (FACS). The “HBcAg (Index)” value came out at 77.1% in the test with Hepa1c1c7 cell line [8] (FACS), 32.6% with H4-II-E cell line [9] (FACS), 76.6% in the test on RAG cell line (FACS) and 66.9% in the test on EL4 cell line [10] (FACS). Moreover, the “HCV RNA (IU/ml)” value in the test with HepG2 cell line [12] was 85.233 IU/ml; in the test with Huh-7 cell line [13], 628.066 IU/ml; with A549 cell line, 4550 IU/ml; in the test on A498 cell line [14], 610 IU/ml; in the test with MDA-MB-231 cell line [15], 605 IU/ml; in the test with Jurkat cell line [16], 3326.667 IU/ml. Also, the “HCV RNA (IU/ml)” value is listed as 1669 IU/ml in the test with EL4 cell line [17] and 21.7 IU/ml in the test on LC540 cell line [18].
